Experimental data reported in the NIST ThermoML archive (doi:10.1016/j.jct.2006.03.008).
“And” between values parts separate entries of the source, which are not always exact repeats. Identical values can stand only once.

Details: for vapor or sublimation pressure: Closed cell (Static) method; for mass density: Fluid (supercritical or subcritical phases), Bellows volumetry

CC(C)C [2-methylpropane]
Details | Critical pressure [kPa] | Critical temperature [K] | mass density | vapor or sublimation pressure
310 K, Liquid | – | – | – | 489.5 kPa [middle of 6 runs]
405 K, 3464.7 kPa | – | – | 185 kg/m3 | –
405 K, 3467.3 kPa | – | – | 199.9 kg/m3 and 200 kg/m3 | –
405 K, 3468 kPa | – | – | 200 kg/m3 | –
405 K, 3468.4 kPa | – | – | 200 kg/m3 | –
405 K, 3469.9 kPa | – | – | 264.9 kg/m3 | –
405 K, Liquid | – | – | – | 3468.8 kPa [middle of 6 runs]
406 K, 3523.7 kPa | – | – | 184.9 kg/m3 | –
406 K, 3525.7 kPa | – | – | 199.9 kg/m3 | –
406 K, 3528.1 kPa | – | – | 264.9 kg/m3 | –
406 K, Liquid | – | – | – | 3527 kPa [middle of 6 runs]
407 K, 3582.1 kPa | – | – | 185.4 kg/m3 | –
407 K, 3585 kPa | – | – | 200.3 kg/m3 | –
407 K, Liquid | – | – | – | 3585.5 kPa [middle of 7 runs]
407.5 K, 3613.8 kPa | – | – | 185 kg/m3 | –
407.5 K, 3617.5 kPa | – | – | 199.9 kg/m3 | –
407.5 K, 3617.7 kPa | – | – | 200.4 kg/m3 | –
407.5 K, 3620.6 kPa | – | – | 265 kg/m3 | –
407.5 K, Liquid | – | – | – | 3619 kPa [middle of 6 runs]
407.89 K, 3632.3 kPa | – | – | 184.9 kg/m3 | –
407.89 K, 3637.6 kPa | – | – | 200.1 kg/m3 | –
407.89 K, 3640.5 kPa | – | – | 240 kg/m3 | –
407.89 K, 3640.6 kPa | – | – | 250 kg/m3 | –
407.89 K, 3640.8 kPa | – | – | 250.2 kg/m3 | –
407.89 K, 3640.9 kPa | – | – | 241.4 kg/m3 | –
407.89 K, 3641.3 kPa | – | – | 250.5 kg/m3 | –
407.89 K, 3644.5 kPa | – | – | 263.7 kg/m3 | –
407.89 K, 3644.6 kPa | – | – | 264.9 kg/m3 | –
408 K, 3635.8 kPa | – | – | 184.1 kg/m3 | –
408 K, 3638.1 kPa | – | – | 184.9 kg/m3 | –
408 K, 3643.7 kPa | – | – | 200 kg/m3 | –
408 K, 3644.2 kPa | – | – | 200.4 kg/m3 | –
408 K, 3645.6 kPa | – | – | 220 kg/m3 | –
408 K, 3646.4 kPa | – | – | 227.5 kg/m3 | –
408 K, 3646.6 kPa | – | – | 240 kg/m3 | –
408 K, 3646.8 kPa | – | – | 220.1 kg/m3 | –
408 K, 3647.4 kPa | – | – | 249.9 kg/m3 | –
408 K, 3652.4 kPa | – | – | 265.5 kg/m3 | –
409 K, 3692.1 kPa | – | – | 184.7 kg/m3 | –
409 K, 3692.8 kPa | – | – | 184.9 kg/m3 | –
409 K, 3702.2 kPa | – | – | 200 kg/m3 | –
409 K, 3702.8 kPa | – | – | 200.4 kg/m3 | –
409 K, 3708.3 kPa | – | – | 219.8 kg/m3 | –
409 K, 3708.5 kPa | – | – | 219.9 kg/m3 | –
409 K, 3708.9 kPa | – | – | 220.4 kg/m3 | –
409 K, 3709.7 kPa | – | – | 224.2 kg/m3 | –
409 K, 3710.5 kPa | – | – | 227.4 kg/m3 | –
409 K, 3713.6 kPa | – | – | 239.9 kg/m3 | –
409 K, 3717.7 kPa | – | – | 250 kg/m3 | –
409 K, 3718.4 kPa | – | – | 250.4 kg/m3 | –
409 K, 3729 kPa | – | – | 265 kg/m3 | –
410 K, 3745.3 kPa | – | – | 185 kg/m3 | –
410 K, 3757.5 kPa | – | – | 200 kg/m3 | –
410 K, 3758.2 kPa | – | – | 200 kg/m3 | –
410 K, 3764.3 kPa | – | – | 210 kg/m3 | –
410 K, 3769.4 kPa | – | – | 220 kg/m3 | –
410 K, 3772.2 kPa | – | – | 227.4 kg/m3 | –
410 K, 3772.5 kPa | – | – | 228.1 kg/m3 | –
410 K, 3779.4 kPa | – | – | 240 kg/m3 | –
410 K, 3785.9 kPa | – | – | 250 kg/m3 | –
410 K, 3786.3 kPa | – | – | 250.4 kg/m3 | –
410 K, 3802.3 kPa | – | – | 265 kg/m3 | –
410 K, 3802.8 kPa | – | – | 265.2 kg/m3 | –
Liquid, Direct measurement | 3639 | – | – | –
Liquid, Visual observation in an unstirred cell | – | 407.88 | – | –
